{"source": "patent US4769383A", "about": "“Dioxonaphthotriazoles having antiallergic activity” (Beecham Group p.l.c., priority 1981, dated 1988)", "key": {"[1]": {"system": "slow reacting substance of anaphylaxis (SRS-A), isolated guinea pig ileum", "experiment": "SRS-A Antagonism on Guinea Pig Ileum", "details": "isolated guinea pig ileum strips; Tyrode's solution with atropine 5×10^-7 M and mepyramine 10^-6 M; rat SRS-A; read-out: Approximate concentration to give a 50% inhibition of a less than maximal response to SRS-A", "protocol": "(§1) The compounds were tested for their ability to:\n(b) antagonise the spasmogenic effects of slow reacting substance of anaphylaxis, SRS-A, on isolated guinea pig ileum.\n(§2) Charles River Sprague Dawley male rats of 250-300 g. and Dunkin Hartley male white guinea pigs of 250-300 g. were used.\nThe compounds have been evaluated as direct antagonists of slow reacting substance of anaphylaxis (SRS-A) by assay using the isolated guinea pig ileum.\nSRS-A rat was obtained from the peritoneal cavity of the rat after passive peritoneal anaphylaxis by a method based on that of R. P. Orange, D. J. Stechschulte and K. F. Austen, J. Immunology, 105, 1087 (1970) as described by J. W. Ross, H. Smith and B. A. Spicer 1976, Increased vascular permeability during passive peritoneal anaphylaxis in the rat. Int. Arch. Allergy appl. 51, 226. The sensitising serum containing antibody was produced in rats as described by J. W. Ross et. al., ibid.\n2 ml of a 1 in 5 dilution of the sensitising serum was injected by the peritoneal route into recipient rats and after 2 hours 5 ml of Tyrode's solution containing 0.4 mg/ml ovalbumin (Sigma Grade III) and 50 μg/ml heparin was injected by the same route. Five minutes after challenge the rats were stunned and bled and the peritoneal fluids collected into polycarbonate tubes in ice. After centrifugation at 150 g. for five minutes the supernatants were combined, heated in a boiling water bath for five minutes, cooled and stored at -20° C. The combined peritoneal fluids contained SRS-A and were used in the antagonism studies.\nThe SRS-A arrays were carried out on isolated strips of guinea pig ileum in Tyrode's solution containing atropine 5×10^-7 M and mepyramine 10^-6 M as described by W. E. Brocklehurst, J. Physiology, 151, 416 (1960).\nThe activity of the antagonists was determined by their ability to reduce submaximal responses induced by SRS-A. The antagonists were added to the 4 ml bath in 0.1 ml volumes in aqueous solution half a minute before the addition of SRS-A and were present during induced contraction."}, "[2]": {"system": "rat passive peritoneal anaphylaxis", "experiment": "Rat Passive Peritoneal Anaphylaxis (PPA)", "type": "in vivo", "details": "Mean ± SEM, 5-7 rats per group; for Dye concentration in peritoneal fluid as % of mean of controls: Pontamine Sky Blue", "protocol": "as §1\n(a) inhibit rat passive peritoneal anaphylaxis; and\nas §2\nThe method has been described previously. (Ross, Janet W., Smith, H. and Spicer, Barbara A. Increased vascular permeability during passive peritoneal anaphylaxis in the rat. Int. Arch. Allergy appl. Immun., 51, 226, 1976).\nRats were sensitised by giving an intraperitoneal injection of 0.5 ml of Bordetella pertussis vaccine (4×10^10 organisms/ml Burroughs Wellcome, London) and a subcutaneous injection of 0.5 ml of an emulsion of 100 mg of ovalbumin (chicken egg albumin, crystallised and lyophilised, grade 3, Sigma, London) in 2 ml of isotonic saline and 3 ml of Freud's incomplete adjuvant (Difco Laboratories, Michigan, USA).\nThe rats were bled by cardiac puncture, on day 18, the blood was pooled, and the serum separated, stored at -20° C. and thawed only before use.\nRats were each given an intraperitoneal injection of 2 ml of a 1:5 dilution of the rat anti-serum in isotonic saline. Two hours later 0.3 ml of a 5% solution of Pontamine Sky Blue (Raymond A. Lamb, London) in isotonic saline was injected intravenously, followed by an intraperitoneal injection of the test compound in 1 ml of saline; (control rats received 1 ml of saline); followed 30 seconds later by an intraperitoneal injection of 5 ml of Tyrode's solution containing 50 μg/ml heparin and 0.4 mg/ml of ovalbumin. The concentrations of the compounds were quoted as those in the 6 ml of fluid injected intraperitoneally. Exactly five minutes after challenge the rats were stunned and bled and their peritoneal fluids were collected by opening their peritoneal cavities over funnels into polycarbonate tubes in ice. The supernatants were separated from the cellular residue by centrifuging at 150 g. for five minutes and were retained for assay of dye and histamine. Any samples obviously contaminated with blood were not used for estimation of dye. Groups of at least five rats were used for each dose of compound and the treatments were randomised.\nDye was assayed within two hours by measurement of optical density (OD) at 625 nm.\nFor histamine assay 0.5 ml samples of the supernatants were added to 1 ml volumes of 12% trichloracetic acid and stored at -20° C. The deproteinised samples were assayed using an automated spectrofluorimetric system (Technicon Autoanalyser) by a method similar to that of Evans, D. P., Lewis, J. A. and Thomson, D. S.: (An automated fluorimetric assay for the rapid determination of histamine in biological fluids. Life Sci. 12, 327, 1973)."}}}
{"smiles": "CCCc1c(OCCCOc2ccc3c(c2)C(=O)c2nn[nH]c2C3=O)ccc(C(C)=O)c1O", "note": "[Example 1, 6-[3-(4-Acetyl-3-hydroxy-2-n-propylphenoxy)propoxy]4,9-dihydro-4,9-dioxo-1H-naphtho[2,3-d]-v-triazole]", "values": [{"measurement": "IC50", "setting": "[1]", "value": "~400", "unit": "nM"}, {"measurement": "Histamine concentration in peritoneal fluid as % of mean of controls", "setting": "[2]; 2 × 10^-5 M injected i.p.", "value": "10 ± 1 % of mean of controls"}, {"measurement": "Dye concentration in peritoneal fluid as % of mean of controls", "setting": "[2]; 2 × 10^-5 M injected i.p.", "value": "32 ± 5 % of mean of controls"}, {"measurement": "Histamine concentration in peritoneal fluid as % of mean of controls", "setting": "[2]; 2 × 10^-6 M injected i.p.", "value": "27 ± 8 % of mean of controls"}, {"measurement": "Dye concentration in peritoneal fluid as % of mean of controls", "setting": "[2]; 2 × 10^-6 M injected i.p.", "value": "58 ± 8 % of mean of controls"}, {"measurement": "Histamine concentration in peritoneal fluid as % of mean of controls", "setting": "[2]; 2 × 10^-7 M injected i.p.", "value": "57 ± 11 % of mean of controls"}, {"measurement": "Dye concentration in peritoneal fluid as % of mean of controls", "setting": "[2]; 2 × 10^-7 M injected i.p.", "value": "63 ± 5 % of mean of controls"}]}
{"smiles": "CCCc1c(OCCCOc2cccc3c2C(=O)c2nn[nH]c2C3=O)ccc(C(C)=O)c1O", "note": "[Example 3, 5-[3-(4-Acetyl-3-hydroxy-2-n-propylphenoxy)-propoxy]4,9-dihydro-4,9-dioxo-1H-naphtho[2,3-d]-v-triazole]", "values": [{"measurement": "IC50", "setting": "[1]", "value": "1000 to 10000", "unit": "nM"}, {"measurement": "Histamine concentration in peritoneal fluid as % of mean of controls", "setting": "[2]; 2 × 10^-5 M injected i.p.", "value": "25 ± 3 % of mean of controls"}, {"measurement": "Dye concentration in peritoneal fluid as % of mean of controls", "setting": "[2]; 2 × 10^-5 M injected i.p.", "value": "57 ± 4 % of mean of controls"}, {"measurement": "Histamine concentration in peritoneal fluid as % of mean of controls", "setting": "[2]; 2 × 10^-6 M injected i.p.", "value": "62 ± 11 % of mean of controls"}, {"measurement": "Dye concentration in peritoneal fluid as % of mean of controls", "setting": "[2]; 2 × 10^-6 M injected i.p.", "value": "94 ± 8 % of mean of controls"}]}
{"smiles": "CCCc1c(OCC(O)COc2ccc3c(c2)C(=O)c2nn[nH]c2C3=O)ccc(C(C)=O)c1O", "note": "(centres unmarked) [Example 4, 6-[3-(4-Acetyl-3-hydroxy-2-n-propylphenoxy)2-hydroxypropoxy]-4,9-dihydro-4,9-dioxo-1H-naphtho[2,3-d]-v-triazole]", "values": [{"measurement": "IC50", "setting": "[1]", "value": "100 to 250", "unit": "nM"}, {"measurement": "Histamine concentration in peritoneal fluid as % of mean of controls", "setting": "[2]; 2 × 10^-7 M injected i.p.", "value": "38 ± 4 % of mean of controls"}, {"measurement": "Dye concentration in peritoneal fluid as % of mean of controls", "setting": "[2]; 2 × 10^-7 M injected i.p.", "value": "58 ± 4 % of mean of controls"}, {"measurement": "Histamine concentration in peritoneal fluid as % of mean of controls", "setting": "[2]; 2 × 10^-8 M injected i.p.", "value": "64 ± 11 % of mean of controls"}, {"measurement": "Dye concentration in peritoneal fluid as % of mean of controls", "setting": "[2]; 2 × 10^-8 M injected i.p.", "value": "72 ± 11 % of mean of controls"}]}
